This is an account of results in article PMC11397063, “Subcutaneous Semaglutide during Breastfeeding: Infant Safety Regarding Drug Transfer into Human Milk” (Nutrients, 2024).

For data set [1] the following is noted: cited from earlier work. From the text:
First, we will contextualize bioavailability in the RID by including these parameters in the RID calculation (RIDF). […] The oral bioavailability of semaglutide is low but unknown per a medical information request at Novo Nordisk (B. Shah, personal communication, 20 June 2024). As such, oral bioavailability will be overestimated using the available parameter for semaglutide formulated with the permeability enhancer, SNAC (F < 0.01), though SNAC will not be present in this scenario [32]. This overestimate will assist in co ... || However, rather than simply converting the weekly dose to an equivalent daily dose, the estimation of RID can be further extrapolated to estimate steady-state conditions over the full week by considering the plasma concentration-time profile of the […]. […] Overgaard et al. published population pharmacokinetic parameters of semaglutide. According to this publication, the disposition of semaglutide after subcutaneous administration follows a 2-compartment model with first-order absorption from the injection ...

Data set [2] deals with breastfed infants. The settings on record: in vivo.
Source text: This study utilized data collected from the InfantRisk Human Milk Biorepository (HMB) which has been approved on 22 February 2021 by the institutional ethics committee (A21-4214). The biorepository targets the collection of milk samples and self-related health information for mother and infant dyad via a questionnaire. […] Therefore, we prioritized collecting samples immediately before any dose changes, even if this occurred prior to reaching steady state concentrations, to maximize the informativeness of our analysis. Participants were asked to express milk samples after a minimum of three administrations of the same dose. Milk samples collected from 0, 12, and 24 h post-administration and their corresponding de-identified health questionnaires were released for 8 different individuals from the HMB for this study. If milk samples for multiple doses were provided, samples were only released from the biorepository for the highest dose collected closest to steady-state.
Data set [3] is described as follows: estimation of relative infant dose (RID, RIDF, RIDFP) from milk. Format: in vivo, human. Conditions: milk concentration assumed = LLOQ 5.7 ng/mL. From the text:
The maternal weight-adjusted infant dose, the relative infant dose (RID%), is often used to assess infant exposure to drugs through breastfeeding. This parameter is the percentage of an infant dose of drug via a full diet of human milk relative to the maternal dose (mg/kg) over the same period. An RID of […] is often considered a safety threshold in risk assessments. (1) RID (%)=100 × infant daily oral dose per kg from milk/maternal daily dose per kg
The fraction’s numerator is computed as the product of the measured drug concentration present in milk times estimated milk intake of 150 mL/kg/day.
The RID calculation was adjusted to include parameters for bioavailability and extended dosing intervals, which will improve the interpretation of RID in the setting of subcutaneous semaglutide injection.
First, we will contextualize bioavailability in the RID by including these parameters in the RID calculation (RIDF). […] The oral bioavailability of semaglutide is low but unknown per a medical information request at Novo Nordisk (B. Shah, personal communication, 20 June 2024). As such, oral bioavailability will be overestimated using the available parameter for semaglutide formulated with the permeability enhancer, SNAC (F < 0.01), though SNAC will not be present in this scenario [32]. […]

Molecules are shown by their SMILES.

On to `CC[C@H](C)[C@H](NC(=O)[C@H](Cc1ccccc1)NC(=O)[C@H](CCC(=O)O)NC(=O)[C@H](CCCCNC(=O)COCCOCCNC(=O)COCCOCCNC(=O)CC[C@H](NC(=O)CCCCCCCCCCCCCCCCC(=O)O)C(=O)O)NC(=O)[C@H](C)NC(=O)[C@H](C)NC(=O)[C@H](CCC(N)=O)NC(=O)CNC(=O)[C@H](CCC(=O)O)NC(=O)[C@H](CC(C)C)NC(=O)[C@H](Cc1ccc(O)cc1)NC(=O)[C@H](CO)NC(=O)[C@H](CO)NC(=O)[C@@H](NC(=O)[C@H](CC(=O)O)NC(=O)[C@H](CO)NC(=O)[C@@H](NC(=O)[C@H](Cc1ccccc1)NC(=O)[C@@H](NC(=O)CNC(=O)[C@H](CCC(=O)O)NC(=O)C(C)(C)NC(=O)[C@@H](N)Cc1cnc[nH]1)[C@@H](C)O)[C@@H](C)O)C(C)C)C(=O)N[C@@H](C)C(=O)N[C@@H](Cc1c[nH]c2ccccc12)C(=O)N[C@@H](CC(C)C)C(=O)N[C@H](C(=O)N[C@@H](CCCNC(=N)N)C(=O)NCC(=O)N[C@@H](CCCNC(=N)N)C(=O)NCC(=O)O)C(C)C` [semaglutide], for which the “oral bioavailability (F)” value in data set [1] (semaglutide formulated with the permeability enhancer SNAC, used as overestimate) was under 0.01. The subcutaneous bioavailability in data set [1] (subcutaneous) was 89%. Further, in data set [2], the “infant growth, all infants” value is “unremarkable” and the “infant milestones, all infants” value is “meeting or surpassing expected milestones”. The “RIDF (%), maximum possible” value in data set [3] (Equation (2), mean maternal weight 93 kg, mean 0.56 mg/week SC, F(oral) 0.01, F(S.C.) 89%, weekly dose/7) is recorded as under 1.12%. Moreover, the “maximum dose to the infant possible without detecting semaglutide in milk” value in data set [3] (infant milk intake 150 mL/kg/day) is listed as 855 ng/kg/day.
